Reference: article PMC9012467 (Science Advances, 2022)

What was measured:
PPPDE1 = PPPDE1 (Homo sapiens, UniProt Q9BSY9); experiment: fluorogenic assay coupled to beta-glucosidase; type: biochemical; conditions: 10 μM substrate, 20 μg beta-glucosidase, pH 5.0, 37°C
PPPDE2 = molecular target: T1, PPPDE2 (Homo sapiens, UniProt Q6ICB0); experiment: fluorogenic assay coupled to beta-glucosidase; type: biochemical; conditions: 10 μM substrate, 20 μg beta-glucosidase, pH 5.0, 37°C
T1 sequence (Q6ICB0 1-168): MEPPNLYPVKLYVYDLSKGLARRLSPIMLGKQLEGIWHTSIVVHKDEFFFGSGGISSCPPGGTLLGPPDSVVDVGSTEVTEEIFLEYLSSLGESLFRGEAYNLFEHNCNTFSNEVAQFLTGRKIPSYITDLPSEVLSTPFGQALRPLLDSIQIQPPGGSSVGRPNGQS

Chain of PPPDE1 (Q9BSY9 whole entry): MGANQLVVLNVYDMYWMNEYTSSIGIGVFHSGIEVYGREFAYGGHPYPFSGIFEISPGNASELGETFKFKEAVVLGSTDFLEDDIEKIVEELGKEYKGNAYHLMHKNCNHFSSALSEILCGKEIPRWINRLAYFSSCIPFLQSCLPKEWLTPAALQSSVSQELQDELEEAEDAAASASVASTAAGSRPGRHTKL

Structure (SMILES): CCCCCCCCCCCCCCCC(=O)SC[C@H]1O[C@@H](Oc2ccc3c(C)cc(=O)oc3c2)[C@H](O)[C@@H](O)[C@@H]1O [MU-6S-palm-βGlc, 4-methylumbelliferyl 6-thio-palmitate-β-D-glucopyranoside]
- fluorogenic assay coupled to beta-glucosidase (PPPDE1): both showed high S-depalmitoylation activity by assaying DPP-5 or MU-6S-palm-βGlc
- fluorogenic assay coupled to beta-glucosidase (PPPDE2): both showed high S-depalmitoylation activity by assaying DPP-5 or MU-6S-palm-βGlc
